Source: patent US11370794B2, “Toll-like receptor antagonist compounds and methods of use” (Dynavax Technologies Corporation, priority 2016, dated 2022)
Like-named read-outs stand apart in the source and are kept apart here.

Assays:
human TLR9 = biological target: T1, human TLR9 (Homo sapiens, UniProt Q9NR96); test: Inhibition of human TLR9 in human B cells (IL-6 ELISA); format: cell-based; details: for IC50: human B cells, agonist 1018 ISS 1 μM, IL-6 readout, 48 hours, range about 0.01 to 10 μM, read-out: Human TLR9 IC50; for inhibits TLR9-dependent responses (in words): summary statement of the description
T1 construct: endogenous in cells; host or cells: primary human B cells (CD19 microbeads) from buffy coats of healthy donors
T1 sequence (Q9NR96 26-1032): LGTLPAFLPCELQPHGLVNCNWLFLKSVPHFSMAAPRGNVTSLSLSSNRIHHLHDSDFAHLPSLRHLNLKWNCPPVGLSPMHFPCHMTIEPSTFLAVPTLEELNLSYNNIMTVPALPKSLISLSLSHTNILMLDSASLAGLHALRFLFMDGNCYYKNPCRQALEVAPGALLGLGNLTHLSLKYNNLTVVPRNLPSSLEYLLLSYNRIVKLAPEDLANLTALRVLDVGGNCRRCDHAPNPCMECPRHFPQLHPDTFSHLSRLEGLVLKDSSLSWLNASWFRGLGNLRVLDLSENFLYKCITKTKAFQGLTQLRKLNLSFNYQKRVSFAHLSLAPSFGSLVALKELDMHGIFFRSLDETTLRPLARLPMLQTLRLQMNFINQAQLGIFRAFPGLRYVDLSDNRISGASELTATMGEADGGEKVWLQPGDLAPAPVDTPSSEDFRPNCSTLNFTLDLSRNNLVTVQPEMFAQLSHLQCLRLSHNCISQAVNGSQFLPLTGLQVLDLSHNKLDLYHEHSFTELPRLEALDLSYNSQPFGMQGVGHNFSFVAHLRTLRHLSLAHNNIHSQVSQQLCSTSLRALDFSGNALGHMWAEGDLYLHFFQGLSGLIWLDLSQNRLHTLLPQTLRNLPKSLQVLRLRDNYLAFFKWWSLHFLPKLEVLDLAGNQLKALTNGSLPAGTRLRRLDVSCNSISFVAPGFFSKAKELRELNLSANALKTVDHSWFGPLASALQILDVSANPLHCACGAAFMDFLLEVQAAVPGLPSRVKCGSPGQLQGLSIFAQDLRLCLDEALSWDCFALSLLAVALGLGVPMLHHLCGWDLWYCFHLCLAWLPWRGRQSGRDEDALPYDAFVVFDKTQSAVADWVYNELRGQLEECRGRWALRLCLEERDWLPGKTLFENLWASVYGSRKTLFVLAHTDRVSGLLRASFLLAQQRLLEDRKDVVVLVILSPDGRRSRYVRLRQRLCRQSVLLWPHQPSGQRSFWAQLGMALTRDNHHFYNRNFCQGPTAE
Description: Example B3—Inhibition of Human TLR9 in Human B Cells
When placed in cell culture, engagement of TLR9 with an agonist leads to expression and release of cytokines into the media.
Buffy coats from anonymized, healthy human donors. CD19 microbeads (Miltenyi Cat. No. 130-050-301). TLR9 agonist, 1018 ISS, CpG-containing DNA oligonucleotide. Human interleukin (IL)-6 ELISA kit (Mabtech Cat. No. 3460-1H-20).
Following isolation of […] from buffy coats, human B cells were plated into 96 well plates at approximately 300,000 cells per well. Test compounds were serially diluted and added to the plates. Test compounds were typically assayed using a concentration range from about 0.01 μM to about 10 μM. Certain test compounds were further assayed in an expanded dilution series using a compound concentration range from about 0.001 μM to about 30 μM. Immediately after adding test compounds, the TLR9 agonist (1018 ISS, CpG-containing DNA oligonucleotide) was added to a final concentration of 1 μM. Cells were incubated for 48 hours at 37° C. A portion of the media supernatant was analyzed for the presence of IL-6 using ELISA kits. The amount of IL-6 produced is a reflection of the amount of TLR9-dependent receptor activity. The IC50 values (the concentration at which 50% of the TLR9-dependent receptor activity is reduced) were calculated based upon the TLR9-dependent receptor activity over a range of different test compound concentrations.

human TLR8 = biological target: T2, human TLR8 (Homo sapiens, UniProt Q9NR97); test: Inhibition of human TLR8 in human monocytes (TNF-alpha / IL-1 beta ELISA); format: cell-based; details: for IC50: human monocytes, agonist ORN8L 100 μg/mL, 24 hours; for inhibits TLR8-dependent responses (in words): summary statement of the description
T2 construct: endogenous in cells; host or cells: primary human monocytes (CD14 microbeads) from buffy coats of healthy donors
T2 sequence (Q9NR97 27-1041): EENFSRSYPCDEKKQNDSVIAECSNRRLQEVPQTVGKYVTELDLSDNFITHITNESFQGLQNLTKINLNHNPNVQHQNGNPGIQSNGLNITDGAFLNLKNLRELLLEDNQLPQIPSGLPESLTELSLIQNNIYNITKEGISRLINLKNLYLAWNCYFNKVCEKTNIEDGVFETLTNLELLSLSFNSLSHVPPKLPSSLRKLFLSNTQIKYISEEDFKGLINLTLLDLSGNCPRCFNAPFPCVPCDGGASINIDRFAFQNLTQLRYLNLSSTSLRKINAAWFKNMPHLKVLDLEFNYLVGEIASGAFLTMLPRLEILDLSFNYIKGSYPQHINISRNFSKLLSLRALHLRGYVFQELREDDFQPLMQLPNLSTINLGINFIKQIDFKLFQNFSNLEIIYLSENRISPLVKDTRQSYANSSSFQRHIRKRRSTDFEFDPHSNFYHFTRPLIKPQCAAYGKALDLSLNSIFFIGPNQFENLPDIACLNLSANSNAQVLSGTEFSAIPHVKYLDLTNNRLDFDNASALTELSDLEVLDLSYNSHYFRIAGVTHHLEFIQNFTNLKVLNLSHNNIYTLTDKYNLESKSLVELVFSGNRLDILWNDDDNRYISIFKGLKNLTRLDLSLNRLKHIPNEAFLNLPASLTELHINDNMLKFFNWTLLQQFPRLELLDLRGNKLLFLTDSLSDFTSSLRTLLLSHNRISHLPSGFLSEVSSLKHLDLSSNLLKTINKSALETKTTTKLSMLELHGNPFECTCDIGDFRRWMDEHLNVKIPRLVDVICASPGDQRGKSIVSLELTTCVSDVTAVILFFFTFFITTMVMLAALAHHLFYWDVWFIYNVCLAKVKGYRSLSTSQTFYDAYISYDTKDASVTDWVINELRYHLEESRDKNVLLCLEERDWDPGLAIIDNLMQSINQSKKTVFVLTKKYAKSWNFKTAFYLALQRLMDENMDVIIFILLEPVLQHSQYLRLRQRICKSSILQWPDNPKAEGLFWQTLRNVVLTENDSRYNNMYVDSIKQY
Excerpt: Example B2—Inhibition of Human TLR8 in Human Monocytes
When placed in cell culture, engagement of TLR8 with an agonist leads to expression and release of cytokines into the media.
Buffy coats from anonymized, healthy human donors. CD14 microbeads (Milteny Cat. No. 130-050-201). TLR8 agonist, (5′-M2UGCUGCUUGUG-/glycerol/-GUGUUCGUCGUM2-5′ with M2=C6-linker, ORN8L, RNA oligonucleotide (Chem Genes Corp.). Human TNF-alpha ELISA kit (Mabtech Cat. No. 3510-1H-20). Human interleukin (IL)-1 beta ELISA kit (Mabtech Cat. No. 3415-1H-20).
Following isolation of monocytes from buffy coats, human monocytes were plated into 96 well plates at approximately 200,000 cells per well. Test compounds were serially diluted and added to the plates. Immediately after adding test compounds, the TLR8 agonist (ORN8L, RNA oligonucleotide) was added to a final concentration of 100 μg/mL. Cells were incubated for 24 hours at 37° C. A portion of the media supernatant was analyzed for the presence of TNF-alpha and/or IL-1 beta using ELISA kits. The amount of TNF-alpha or IL-1 beta produced is a reflection of the amount of TLR8-dependent receptor activity. The IC50 values (the concentration at which 50% of the TLR8-dependent receptor activity is reduced) were calculated based upon the TLR8-dependent receptor activity over a range of different test compound concentrations.

[1] = IL-1 beta readout, read-out: Human TLR8 IC50 IL-1b
[2] = TNF-alpha readout, read-out: Human TLR8 IC50 TNF-a

| SMILES | IC50 (human TLR9) | inhibits TLR9-dependent responses (in words) (human TLR9) | IC50 (human TLR8; [1]) | IC50 (human TLR8; [2]) | inhibits TLR8-dependent responses (in words) (human TLR8) |
| --- | --- | --- | --- | --- | --- |
| CCCCN(CC)CCNC(=O)C1CCN(c2nnc(C)c3c(C)n(-c4ccccc4)nc23)CC1 [25x, N-(2-(butyl(ethyl)amino)ethyl)-1-(3,4-dimethyl-2-phenyl-2H-pyrazolo[3,4-d]pyridazin-7-yl)piperidine-4-carboxamide] | 0.041 µM | inhibit | 4.54 µM | 4.85 µM | – |
| Cc1nnc(N2CCC(C(=O)NCCCN3CCN(C)CC3)CC2)c2nn(-c3ccccc3)c(C)c12 [31x, 1-(3,4-dimethyl-2-phenyl-2H-pyrazolo[3,4-d]pyridazin-7-yl)-N-(3-(4-methylpiperazin-1-yl)propyl)piperidine-4-carboxamide] | 0.211 µM | – | > 10 µM | > 10 µM | – |
| Cc1nnc(N2CCC(C(=O)NCCN3CCOCC3)CC2)c2nn(-c3ccccc3)c(C)c12 [32x, 1-(3,4-dimethyl-2-phenyl-2H-pyrazolo[3,4-d]pyridazin-7-yl)-N-(2-morpholinoethyl)piperidine-4-carboxamide] | 0.341 µM | – | > 10 µM | > 10 µM | – |
| CCN1CCCC1CNC(=O)C1CCN(c2nnc(C)c3c(C)n(-c4ccccc4)nc23)CC1 (stereo not shown) [33x, 1-(3,4-dimethyl-2-phenyl-2H-pyrazolo[3,4-d]pyridazin-7-yl)-N-((1-ethylpyrrolidin-2-yl)methyl)piperidine-4-carboxamide] | 0.07 µM | – | > 10 µM | > 10 µM | – |
| Cc1ccc(-n2nc3c(N4CCCC(C(=O)NCCN(C)C)C4)nnc(C)c3c2C)cc1 (stereo not shown) [45x, 1-(3,4-dimethyl-2-(p-tolyl)-2H-pyrazolo[3,4-d]pyridazin-7-yl)-N-(2-(dimethylamino)ethyl)piperidine-3-carboxamide] | 0.009 µM | – | – | ≥ 20 µM | – |
| Cc1nnc(N2CCCC(C(=O)NCCCN3CCOCC3)C2)c2nn(-c3ccccc3)c(C)c12 (stereo not shown) [49x, 1-(3,4-dimethyl-2-phenyl-2H-pyrazolo[3,4-d]pyridazin-7-yl)-N-(3-morpholinopropyl)piperidine-3-carboxamide] | 0.029 µM | – | 3.94 µM | 3.56 µM | – |
| CCN1CCN(C(=O)C2CCN(c3nnc(C)c4c(C)n(-c5ccc(C)cc5)nc34)CC2)CC1 [51x, (1-(3,4-dimethyl-2-(p-tolyl)-2H-pyrazolo[3,4-d]pyridazin-7-yl)piperidin-4-yl)(4-ethylpiperazin-1-yl)methanone] | 0.006 µM | inhibit | 0.33 µM | 0.23 µM | inhibit |
| COc1ccc(-n2nc3c(N4CCCC(C(=O)NCCN(C)C)C4)nnc(C)c3c2C)cc1 (stereo not shown) [54x, N-(2-(dimethylamino)ethyl)-1-(2-(4-methoxyphenyl)-3,4-dimethyl-2H-pyrazolo[3,4-d]pyridazin-7-yl)piperidine-3-carboxamide] | 0.004 µM | inhibit | 0.74 µM | 0.29 µM | inhibit |

Second part, the molecule after the results:

| IC50 (human TLR9) | inhibits TLR9-dependent responses (in words) (human TLR9) | IC50 (human TLR8; [1]) | IC50 (human TLR8; [2]) | inhibits TLR8-dependent responses (in words) (human TLR8) | SMILES |
| --- | --- | --- | --- | --- | --- |
| 0.059 µM | – | 2.11 µM | 2.04 µM | – | Cc1nnc(N2CCC(C(=O)N3CCN(C)CC3)CC2)c2nn(-c3ccccc3)c(C)c12 [59x, (1-(3,4-dimethyl-2-phenyl-2H-pyrazolo[3,4-d]pyridazin-7-yl)piperidin-4-yl)(4-methylpiperazin-1-yl)methanone] |
| 0.018 µM | – | 1.01 µM | 1.12 µM | – | CCCN1CCN(C(=O)C2CCCN(c3nnc(C)c4c(C)n(-c5ccccc5)nc34)C2)CC1 (stereo not shown) [63x, (1-(3,4-dimethyl-2-phenyl-2H-pyrazolo[3,4-d]pyridazin-7-yl)piperidin-3-yl)(4-propylpiperazin-1-yl)methanone] |
| 0.013 µM | – | 0.66 µM | 0.9 µM | – | CCCN1CCN(C(=O)C2CCN(c3nnc(C)c4c(C)n(-c5ccccc5)nc34)CC2)CC1 [64x, (1-(3,4-dimethyl-2-phenyl-2H-pyrazolo[3,4-d]pyridazin-7-yl)piperidin-4-yl)(4-propylpiperazin-1-yl)methanone] |
| 0.36 µM | – | > 10 µM | > 10 µM | – | Cc1ccc(-n2nc3c(N4CCC(C(=O)NCC(C)(C)CN)CC4)nnc(C)c3c2C)cc1 [Compound No. 7, N-(3-amino-2,2-dimethylpropyl)-1-(3,4-dimethyl-2-(p-tolyl)-2H-pyrazolo[3,4-d]pyridazin-7-yl)piperidine-4-carboxamide] |
| 0.379 µM | – | > 10 µM | > 10 µM | – | Cc1ccc(-n2nc3c(N4CCC(C(=O)NCCCN5CCC5)CC4)nnc(C)c3c2C)cc1 [Compound No. 11, N-(3-(azetidin-1-yl)propyl)-1-(3,4-dimethyl-2-(p-tolyl)-2H-pyrazolo[3,4-d]pyridazin-7-yl)piperidine-4-carboxamide] |
